This note sets out measurements from patent US11174251B2, “Compositions and methods for inhibition of the JAK pathway” (Rigel Pharmaceuticals, Inc., priority 2010, dated 2021).

Structures are written as SMILES. Structures can show the parent of a compound that is named as a salt.

In this test the target is T1, JAK3 (Homo sapiens, UniProt P52333).
T1 construct: The Ramos B-cell line was acquired from ATCC (ATCC Catalog No. CRL-1596); host or cells: Ramos B-cell line (human)
T1 sequence (P52333 1-1124): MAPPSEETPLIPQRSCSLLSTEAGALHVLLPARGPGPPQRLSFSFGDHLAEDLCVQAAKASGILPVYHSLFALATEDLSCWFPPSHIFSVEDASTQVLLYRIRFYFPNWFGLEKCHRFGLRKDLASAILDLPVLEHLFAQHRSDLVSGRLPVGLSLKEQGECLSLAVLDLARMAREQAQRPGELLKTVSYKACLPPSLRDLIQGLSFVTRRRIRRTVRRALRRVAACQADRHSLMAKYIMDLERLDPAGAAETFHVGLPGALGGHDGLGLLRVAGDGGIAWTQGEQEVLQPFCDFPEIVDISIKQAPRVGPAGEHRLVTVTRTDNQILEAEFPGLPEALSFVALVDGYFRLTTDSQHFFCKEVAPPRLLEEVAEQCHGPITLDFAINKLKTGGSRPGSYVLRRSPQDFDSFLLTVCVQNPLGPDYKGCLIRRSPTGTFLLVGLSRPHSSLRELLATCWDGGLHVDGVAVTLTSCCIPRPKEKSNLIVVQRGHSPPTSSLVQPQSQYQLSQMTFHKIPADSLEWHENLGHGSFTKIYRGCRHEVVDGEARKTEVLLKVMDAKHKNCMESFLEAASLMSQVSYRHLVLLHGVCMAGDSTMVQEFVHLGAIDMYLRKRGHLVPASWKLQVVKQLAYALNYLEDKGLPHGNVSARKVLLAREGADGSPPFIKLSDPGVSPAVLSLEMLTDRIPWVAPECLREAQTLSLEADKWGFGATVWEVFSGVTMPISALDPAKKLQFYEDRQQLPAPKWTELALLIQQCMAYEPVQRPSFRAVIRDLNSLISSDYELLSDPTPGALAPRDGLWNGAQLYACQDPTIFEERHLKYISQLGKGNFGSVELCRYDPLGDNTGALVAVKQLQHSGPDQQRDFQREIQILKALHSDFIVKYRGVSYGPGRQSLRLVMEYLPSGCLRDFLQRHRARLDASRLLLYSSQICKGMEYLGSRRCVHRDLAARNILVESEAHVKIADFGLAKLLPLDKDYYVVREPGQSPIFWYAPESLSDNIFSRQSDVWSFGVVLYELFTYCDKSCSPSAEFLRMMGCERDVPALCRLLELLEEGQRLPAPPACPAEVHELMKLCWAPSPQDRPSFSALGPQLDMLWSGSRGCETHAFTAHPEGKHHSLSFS
As to the kind of experiment: Assay for CD23 expression on Ramos B-cells stimulated by IL-4 (Table IV: ability to inhibit JAK3 activity). Type of test: cell-based. As to conditions: tested under conditions described in Example 3 (so in the source). The method in brief: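 IL-4-induced CD23 surface expression on human Ramos B cells, detected by flow cytometry after 20–24 h stimulation (IL-4 final 50 units/mL). Compound or DMSO added 1 h beforehand at 37 °C; cells kept in RPMI with 5% serum.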
The molecule `Cc1cnc(Nc2cccc(C#N)c2F)nc1Nc1ccc2oc(=O)[nH]c2c1` [Compound I-72, 2-fluoro-3-(5-methyl-4-(2-oxo-2,3-dihydrobenzo[d]oxazol-5-ylamino)pyrimidin-2-ylamino)benzonitrile trifluoroacetate salt] showed a 50% inhibitory concentration (IC50) below 500 nM. For `N#Cc1cccc(Nc2ncc(Cl)c(Nc3ccc4oc(=O)[nH]c4c3)n2)c1F` [Compound I-73, 3-(5-chloro-4-(2-oxo-2,3-dihydrobenzo[d]oxazol-5-ylamino)pyrimidin-2-ylamino)-2-fluorobenzonitrile trifluoroacetate salt] the value was below 500 nM; for `COC(=O)c1cnc(Nc2cc(C)c(F)c(C)c2)nc1Nc1ccc2oc(=O)[nH]c2c1` [Compound I-74, methyl 2-(4-fluoro-3,5-dimethylphenylamino)-4-(2-oxo-2,3-dihydrobenzo[d]oxazol-5-ylamino)pyrimidine-5-carboxylate trifluoroacetate salt], 5000 to 10000 nM; for `COc1ccc(Nc2ncc(C)c(Nc3ccc4oc(=O)[nH]c4c3)n2)c(F)c1` [Compound I-75, 5-(2-(2-fluoro-4-methoxyphenylamino)-5-methylpyrimidin-4-ylamino)benzo[d]oxazol-2(3H)-one trifluoroacetate salt], below 500 nM. On to `COc1ccc(Nc2ncc(Cl)c(Nc3ccc4oc(=O)[nH]c4c3)n2)c(F)c1` [Compound I-76, 5-(5-chloro-2-(2-fluoro-4-methoxyphenylamino)pyrimidin-4-ylamino)benzo[d]oxazol-2(3H)-one trifluoroacetate salt], for which the half-inhibitory concentration (IC50) was below 500 nM. Next, `COCCOc1ccc(Nc2ncc(C)c(Nc3ccc4oc(=O)[nH]c4c3)n2)c(F)c1OCCOC` [Compound I-77, 5-(2-(2-fluoro-3,4-bis(2-methoxyethoxy)phenylamino)-5-methylpyrimidin-4-ylamino)benzo[d]oxazol-2(3H)-one trifluoroacetate salt]: below 500 nM; `COCCOc1ccc(Nc2ncc(Cl)c(Nc3ccc4oc(=O)[nH]c4c3)n2)c(F)c1OCCOC` [Compound I-78, 5-(5-chloro-2-(2-fluoro-3,4-bis(2-methoxyethoxy)phenylamino)pyrimidin-4-ylamino)benzo[d]oxazol-2(3H)-one trifluoroacetate salt]: below 500 nM.

Molecule `Cc1cc(Nc2ncc(CO)c(Nc3ccc4oc(=O)[nH]c4c3)n2)cc(C)c1F` [Compound I-79, 5-(2-(4-fluoro-3,5-dimethylphenylamino)-5-(hydroxymethyl)pyrimidin-4-ylamino)benzo[d]oxazol-2(3H)-one trifluoroacetate salt] yielded an IC50 below 500 nM. Next, `COc1cc(Nc2ncc(CO)c(Nc3ccc4oc(=O)[nH]c4c3)n2)cc(C)c1F` [Compound I-80, 5-(2-(4-fluoro-3-methoxy-5-methylphenylamino)-5-(hydroxymethyl)pyrimidin-4-ylamino)benzo[d]oxazol-2(3H)-one trifluoroacetate salt]: 500 to 5000 nM; `Cc1cc(Nc2ncc(Cl)c(Nc3ccc4oc(=O)[nH]c4c3)n2)cc(N(C)C)c1C` [Compound I-83, 5-(5-chloro-2-(3-(dimethylamino)-4,5-dimethylphenylamino)pyrimidin-4-ylamino)benzo[d]oxazol-2(3H)-one trifluoroacetate salt]: below 500 nM; `CCN(CC)c1cc(Nc2ncc(C)c(Nc3ccc4oc(=O)[nH]c4c3)n2)cc(C)c1C` [Compound I-84, 5-(2-(3-(diethylamino)-4,5-dimethylphenylamino)-5-methylpyrimidin-4-ylamino)benzo[d]oxazol-2(3H)-one formate salt]: below 500 nM.

Turning to `CCNc1cc(Nc2ncc(C)c(Nc3ccc4oc(=O)[nH]c4c3)n2)cc(C)c1C` [Compound I-85, 5-(2-(3-(ethylamino)-4,5-dimethylphenylamino)-5-methylpyrimidin-4-ylamino)benzo[d]oxazol-2(3H)-one formate salt], the concentration for half-maximal inhibition (IC50) is below 500 nM. For `CCN(CC)c1cc(Nc2ncc(Cl)c(Nc3ccc4oc(=O)[nH]c4c3)n2)cc(C)c1C` [Compound I-86, 5-(5-chloro-2-(3-(diethylamino)-4,5-dimethylphenylamino)pyrimidin-4-ylamino)benzo[d]oxazol-2(3H)-one formate salt] the value was below 500 nM. `CCNc1cc(Nc2ncc(Cl)c(Nc3ccc4oc(=O)[nH]c4c3)n2)cc(C)c1C` [Compound I-87, 5-(5-chloro-2-(3-(ethylamino)-4,5-dimethylphenylamino)pyrimidin-4-ylamino)benzo[d]oxazol-2(3H)-one formate salt] had a concentration for half-maximal inhibition (IC50) below 500 nM. Next, `Cc1cnc(Nc2cc(C)c(C)c(C)c2)nc1Nc1cc(-c2ccc3c(c2)OCO3)c2oc(=O)[nH]c2c1` [Compound I-88, 5-(2-(3,4,5-trimethylphenylamino)-5-methylpyrimidin-4-ylamino)-7-(benzo[d][1,3]dioxol-6-yl)benzo[d]oxazol-2(3H)-one]: above 10000 nM; `Cc1cnc(Nc2cc(C)c(C)c(C)c2)nc1Nc1cc(CN(C)C)c2oc(=O)[nH]c2c1` [Compound I-89, 5-(2-(3,4,5-trimethylphenylamino)-5-methylpyrimidin-4-ylamino)-7-((dimethylamino)methyl)benzo[d]oxazol-2(3H)-one ditrifluoroacetate salt]: 500 to 5000 nM; `CCN(CC)Cc1cc(Nc2nc(Nc3cc(C)c(C)c(C)c3)ncc2C)cc2[nH]c(=O)oc12` [Compound I-90, 7-((diethylamino)methyl)-5-(2-(3,4,5-trimethylphenylamino)-5-methylpyrimidin-4-ylamino)benzo[d]oxazol-2(3H)-one ditrifluoroacetate salt]: 500 to 5000 nM. As to `Cc1cnc(Nc2cc(C)c(C)c(C)c2)nc1Nc1cc(CN2CCCC2)c2oc(=O)[nH]c2c1` [Compound I-91, 5-(2-(3,4,5-trimethylphenylamino)-5-methylpyrimidin-4-ylamino)-7-((pyrrolidin-1-yl)methyl)benzo[d]oxazol-2(3H)-one], the IC50 is 500 to 5000 nM. For `Cc1cnc(Nc2cc(C)c(C)c(C)c2)nc1Nc1cc(CN2CCN(C)CC2)c2oc(=O)[nH]c2c1` [Compound I-93, 5-(2-(3,4,5-trimethylphenylamino)-5-methylpyrimidin-4-ylamino)-7-((4-methylpiperazin-1-yl)methyl)benzo[d]oxazol-2(3H)-one] the value was 500 to 5000 nM; for `Cc1cnc(Nc2cc(C)c(C)c(C)c2)nc1Nc1cc(CN2CCN(C(=O)OC(C)(C)C)CC2)c2oc(=O)[nH]c2c1` [Compound I-94, tert-butyl 4-((5-(2-(3,4,5-trimethylphenylamino)-5-methylpyrimidin-4-ylamino)-2,3-dihydro-2-oxobenzo[d]oxazol-7-yl)methyl)piperazine-1-carboxylate], 5000 to 10000 nM; for `Cc1cnc(Nc2cc(C)c(C)c(C)c2)nc1Nc1cc(CN2CCNCC2)c2oc(=O)[nH]c2c1` [Compound I-95, 5-(2-(3,4,5-trimethylphenylamino)-5-methylpyrimidin-4-ylamino)-7-((piperazin-1-yl)methyl)benzo[d]oxazol-2(3H)-one ditrifluoroacetate salt], 5000 to 10000 nM. Molecule `Cc1cnc(Nc2cc(C)c(C)c(C)c2)nc1Nc1cc(/C=C/CCl)c2oc(=O)[nH]c2c1` [Compound I-96, 5-(2-(3,4,5-trimethylphenylamino)-5-methylpyrimidin-4-ylamino)-7-((E)-3-chloroprop-1-enyl)benzo[d]oxazol-2(3H)-one] registered an IC50 of 500 to 5000 nM. Regarding `CCN(CC)Cc1cnc(Nc2cc(C)c(C)c(C)c2)nc1Nc1ccc2oc(=O)[nH]c2c1` [Compound I-97, 5-(5-((diethylamino)methyl)-2-(3,4,5-trimethylphenylamino)pyrimidin-4-ylamino)benzo[d]oxazol-2(3H)-one ditrifluoroacetate salt], the half-maximal inhibitory concentration (IC50) lay in the range of 500 to 5000 nM. `Cc1cc(Nc2ncc(CN3CCCC3)c(Nc3ccc4oc(=O)[nH]c4c3)n2)cc(C)c1C` [Compound I-98, 5-(2-(3,4,5-trimethylphenylamino)-5-((pyrrolidin-1-yl)methyl)pyrimidin-4-ylamino)benzo[d]oxazol-2(3H)-one] had an IC50 of 5000 to 10000 nM.

The term IC50 denotes the concentration that gives 50% inhibition. Lower therefore signals higher potency.
